Experiments:
[1] = system: human plasma (platelet poor plasma); test: Basic coagulation tests: PT, INR, APTT, TT; assay type: biochemical; conditions: for TT: thrombin 3.0 UNIH/mL
Description: The blood was collected into vacuum tubes stuffed with 3.2% buffered sodium citrate. Platelet poor plasma (PPP) was obtained by centrifugation at 3000× g for 10 min at room temperature using a Micro 22R centrifuge (Hettich Zentrifugen, Tuttlingen, Germany). The obtained PPP was stored in small aliquots for up to one month at –30° C. Before each experiment, PPP was restored at 37 °C for 15 min. Once thawed, the PPP was not frozen again nor used for retesting.
The effects of biguanidines (1–5) on the basic coagulation parameters (PT, INR, APTT, and TT) were carried out using a CoagChrom-3003 coagulometer (Bio-Ksel, Grudziądz, Poland), according to the routine laboratory diagnostic procedure. The studies were performed in multiplicate (n = 4–7). The control samples containing distilled water and methanol (1:1) were also included.
The results are presented as mean ± standard deviation (SD). The methods were validated, and coefficients of variability for all experiments were calculated (PT: CV = 10.25%, APTT: CV = 8.55%, TT: CV = 4.87%). The reference values for each test are as follows: PT: 9.7–14.6 s; APTT: 26.7–40.0 s; TT: 14.0–18.0 s for 3.0 UNIH/mL of thrombin.

[2] = system: clot formation and fibrinolysis in human citrate plasma; test: Clot formation and fibrinolysis test (CL-test); assay type: biochemical
Description: The effects of the […] on overall hemostasis potential by means of clot formation and fibrinolysis test (CL-test) were further tested based on the continuous measurement of the changes in optical transmittance over time, as described by Kostka et al. and Sikora et al.. These experiments were conducted using 470 µL of three-fold diluted human citrate plasma, 10 µL of the tested compounds, and 10 µL t-PA (final concentration in a sample 220 ng/mL). The clot formation was triggered by thrombin (10 µL, final concentration 0.5 IU/mL). The clot formation and lysis curves were determined at a wavelength of 405 nm with a spectrophotometer (Cecil CE 2021; London, UK) with circulating thermostated water (37 °C) and a Model 300 Electronic Stirrer (Rank Brothers Ltd., Cambridge, UK). The experiments were conducted in multiplicate (n = 5–7), and the results are presented as mean ± SD.
The received graphs were analyzed using dedicated software to determine the kinetic parameters of clot formation, stabilization, and fibrinolysis. The following parameters of clot formation were determined: Tt—thrombin time (s), Fmax—maximum clotting (%T), Tf—plasma clotting time (s), Fvo—initial plasma clotting velocity (%T/min), Sr—area under the clot formation curve (%Txmin). The parameters of the clot stabilization phase comprised Tc—clot stabilization time (s), Sc—area under the curve of stable clot formation (%Txmin). The parameters of fibrinolysis comprised Lmax—maximum lysis (%T), Tl—fibrinolysis time (s), Lvo—initial clot fibrinolysis velocity (%T/min), Sf—area under the fibrinolysis curve (%Txmin). Additionally, the overall potential of clot formation and fibrinolysis (CLAUC, (%Txmin)) and total time of the process of clot formation and fibrinolysis (T, (s)) were also estimated.

[3] = system: tissue plasminogen activator (t-PA) release from HUVEC; test: t-PA release from HUVEC (ELISA); assay type: cell-based, human; conditions: 24 h, HUVEC supernatants
Description: The influence on tissue plasminogen activator release from HUVECs was assessed using an ELISA kit (Abcam, Cambridge, UK). HUVECs seeded at a density of 10,000 per well on 96-well plates were co-incubated with compounds 1–5 at the concentrations of 0.3 and 1.0 mM for an additional 24 h (37 °C, 5% CO2). The cell supernatants were discarded into Eppendorf tubes and preserved at −20° C until analysis. Before the tests, the samples were thawed at room temperature for 15 min, and diluted 2.5-fold with diluent in Elisa kit. The measurements of t-PA concentrations in cell supernatants were conducted according to the manufacturer’s protocol using 3,3’,5,5’-tetramethylbenzidine (TMB) as a chromogenic substrate. The concentration of t-PA in HUVEC supernatants was determined using a calibration curve (R^2 = 0.9936). The results are presented as mean ± SD, n = 6. The CV for the applied method was 7.21%.

## CCCCS(=O)(=O)NC(N)=NC(=N)N(C)C [Compound 1]
[1]; 0.006 mM
  APTT: 35.12 ± 4.75 s
  INR: 1.04 ± 0.19
  PT: 13.04 ± 2.41 s
  TT: 14.03 ± 0.94 s
[1]; 0.06 mM
  APTT: 33.36 ± 1.78 s
  INR: 1.11 ± 0.23
  PT: 12.78 ± 1.86 s
  TT: 12.98 ± 1.08 s
[1]; 0.3 mM
  APTT: 33.76 ± 2.53 s
  INR: 1.08 ± 0.22
  PT: 13.46 ± 2.71 s
  TT: 13.90 ± 1.24 s
[1]; 0.6 mM
  APTT: 34.68 ± 3.31 s
  INR: 1.05 ± 0.19
  PT: 13.08 ± 2.36 s
  TT: 12.64 ± 1.31 s
[1]; 1.5 mM
  APTT: 34.68 ± 5.21 s
  INR: 1.08 ± 0.23
  PT: 13.48 ± 2.93 s
  TT: 13.03 ± 0.86 s
[2]; 0.06 mM
  Fmax—maximum clotting: 73.71 ± 5.89 %T
  Fvo—initial plasma clotting velocity: 230.57 ± 34.38 %T/min
  Lmax—maximum lysis: 70.23 ± 10.26 %T
  Lvo—initial clot fibrinolysis velocity: 21.40 ± 6.16 %T/min
  Sc—area under the curve of a stable clot formation: 389.25 ± 160.80 %T x min
  Sf—area under the clot formation curve: 50.97 ± 7.65 %T x min
  Sl (area under the fibrinolysis curve): 193.67 ± 107.75 %T x min
  S—overall potential of clot formation and fibrinolysis (CLAUC): 633.89 ± 269.28 %T x min
  Tc—clot stabilization time: 324.86 ± 130.79 s
  Tf—plasma clotting time: 58.61 ± 9.61 s
  Tl—fibrinolysis time: 253.57 ± 104.13 s
  Tt—thrombin time: 18.97 ± 3.08 s
  T—total time of the process of clot formation and fibrinolysis: 656.01 ± 236.60 s
[2]; 0.3 mM
  Fmax—maximum clotting: 71.97 ± 6.78 %T
  Fvo—initial plasma clotting velocity: 227.86 ± 37.81 %T/min
  Lmax—maximum lysis: 69.09 ± 10.62 %T
  Lvo—initial clot fibrinolysis velocity: 18.53 ± 7.15 %T/min
  Sc—area under the curve of a stable clot formation: 407.13 ± 154.90 %T x min
  Sf—area under the clot formation curve: 52.45 ± 10.08 %T x min
  Sl (area under the fibrinolysis curve): 186.37 ± 104.97 %T x min
  S—overall potential of clot formation and fibrinolysis (CLAUC): 645.95 ± 264.51 %T x min
  Tc—clot stabilization time: 347.71 ± 124.84 s
  Tf—plasma clotting time: 61.36 ± 11.85 s
  Tl—fibrinolysis time: 260.57 ± 95.60 s
  Tt—thrombin time: 16.81 ± 3.05 s
  T—total time of the process of clot formation and fibrinolysis: 686.46 ± 226.50 s
[2]; 0.6 mM
  Fmax—maximum clotting: 70.77 ± 5.62 %T
  Fvo—initial plasma clotting velocity: 217.71 ± 37.42 %T/min
  Lmax—maximum lysis: 69.47 ± 6.67 %T
  Lvo—initial clot fibrinolysis velocity: 18.64 ± 4.38 %T/min
  Sc—area under the curve of a stable clot formation: 388.20 ± 131.19 %T x min
  Sf—area under the clot formation curve: 53.53 ± 5.26 %T x min
  Sl (area under the fibrinolysis curve): 178.97 ± 84.17 %T x min
  S—overall potential of clot formation and fibrinolysis (CLAUC): 620.70 ± 216.54 %T x min
  Tc—clot stabilization time: 338.00 ± 114.76 s
  Tf—plasma clotting time: 63.63 ± 6.31 s
  Tl—fibrinolysis time: 267.71 ± 99.31 s
  Tt—thrombin time: 16.75 ± 4.87 s
  T—total time of the process of clot formation and fibrinolysis: 686.09 ± 216.29 s
[2]; 1.5 mM
  Fmax—maximum clotting: 70.21 ± 3.38 %T
  Fvo—initial plasma clotting velocity: 193.57 ± 47.31 %T/min
  Lmax—maximum lysis: 66.90 ± 8.86 %T
  Lvo—initial clot fibrinolysis velocity: 20.23 ± 6.46 %T/min
  Sc—area under the curve of a stable clot formation: 389.89 ± 172.66 %T x min
  Sf—area under the clot formation curve: 52.36 ± 6.58 %T x min
  Sl (area under the fibrinolysis curve): 159.20 ± 87.92 %T x min
  S—overall potential of clot formation and fibrinolysis (CLAUC): 602.52 ± 263.77 %T x min
  Tc—clot stabilization time: 344.29 ± 149.70 s
  Tf—plasma clotting time: 64.21 ± 9.03 s
  Tl—fibrinolysis time: 236.57 ± 80.20 s
  Tt—thrombin time: 21.60 ± 6.05 s
  T—total time of the process of clot formation and fibrinolysis: 666.67 ± 234.05 s
[3]; 0.3 mM
  Released t-PA: 2427.2 ± 246.0 pg/mL
[3]; 1.0 mM
  Released t-PA: 1709.5 ± 219.1 pg/mL

## CN(C)C(=N)N=C(N)NS(=O)(=O)C1CCCCC1 [Compound 3]
[1]; 0.006 mM
  APTT: 32.97 ± 5.06 s
  INR: 1.00 ± 0.11
  PT: 12.52 ± 1.42 s
  TT: 13.18 ± 1.97 s
[1]; 0.06 mM
  APTT: 34.50 ± 4.52 s
  INR: 1.04 ± 0.15
  PT: 13.02 ± 1.90 s
  TT: 13.14 ± 2.01 s
[1]; 0.3 mM
  APTT: 33.00 ± 5.70 s
  INR: 1.09 ± 0.11
  PT: 13.60 ± 1.39 s
  TT: 13.46 ± 1.97 s
[1]; 0.6 mM
  APTT: 33.17 ± 5.34 s
  INR: 1.09 ± 0.18
  PT: 13.66 ± 2.27 s
  TT: 13.50 ± 1.74 s
[1]; 1.5 mM
  APTT: 32.49 ± 7.50 s
  INR: 1.06 ± 0.18
  PT: 13.30 ± 2.30 s
  TT: 14.06 ± 1.60 s
[2]; 0.06 mM
  Fmax—maximum clotting: 65.40 ± 9.39 %T
  Fvo—initial plasma clotting velocity: 208.17 ± 44.80 %T/min
  Lmax—maximum lysis: 71.38 ± 8.36 %T
  Lvo—initial clot fibrinolysis velocity: 20.38 ± 5.24 %T/min
  Sc—area under the curve of a stable clot formation: 314.15 ± 49.14 %T x min
  Sf—area under the clot formation curve: 48.52 ± 10.81 %T x min
  Sl (area under the fibrinolysis curve): 156.16 ± 30.07 %T x min
  S—overall potential of clot formation and fibrinolysis (CLAUC): 521.91 ± 66.81 %T x min
  Tc—clot stabilization time: 279.50 ± 46.51 s
  Tf—plasma clotting time: 57.45 ± 8.71 s
  Tl—fibrinolysis time: 235.33 ± 48.33 s
  Tt—thrombin time: 16.68 ± 3.26 s
  T—total time of the process of clot formation and fibrinolysis: 588.97 ± 87.54 s
[2]; 0.3 mM
  Fmax—maximum clotting: 68.78 ± 4.04 %T
  Fvo—initial plasma clotting velocity: 214.17 ± 32.05 %T/min
  Lmax—maximum lysis: 70.15 ± 3.87 %T
  Lvo—initial clot fibrinolysis velocity: 22.88 ± 8.98 %T/min
  Sc—area under the curve of a stable clot formation: 335.21 ± 50.51 %T x min
  Sf—area under the clot formation curve: 44.41 ± 6.00 %T x min
  Sl (area under the fibrinolysis curve): 142.20 ± 37.46 %T x min
  S—overall potential of clot formation and fibrinolysis (CLAUC): 521.82 ± 88.83 %T x min
  Tc—clot stabilization time: 299.50 ± 38.60 s
  Tf—plasma clotting time: 55.13 ± 7.55 s
  Tl—fibrinolysis time: 229.17 ± 48.85 s
  Tt—thrombin time: 16.23 ± 4.22 s
  T—total time of the process of clot formation and fibrinolysis: 600.03 ± 91.80 s
[2]; 0.6 mM
  Fmax—maximum clotting: 66.60 ± 4.00 %T
  Fvo—initial plasma clotting velocity: 211.50 ± 22.76 %T/min
  Lmax—maximum lysis: 67.55 ± 4.50 %T
  Lvo—initial clot fibrinolysis velocity: 23.53 ± 6.67 %T/min
  Sc—area under the curve of a stable clot formation: 323.11 ± 42.53 %T x min
  Sf—area under the clot formation curve: 42.40 ± 3.94 %T x min
  Sl (area under the fibrinolysis curve): 137.48 ± 23.47 %T x min
  S—overall potential of clot formation and fibrinolysis (CLAUC): 502.99 ± 64.69 %T x min
  Tc—clot stabilization time: 299.50 ± 40.90 s
  Tf—plasma clotting time: 54.73 ± 5.88 s
  Tl—fibrinolysis time: 234.83 ± 42.86 s
  Tt—thrombin time: 17.17 ± 3.17 s
  T—total time of the process of clot formation and fibrinolysis: 606.23 ± 87.70 s
[2]; 1.5 mM
  Fmax—maximum clotting: 63.60 ± 5.36 %T
  Fvo—initial plasma clotting velocity: 199.50 ± 18.07 %T/min
  Lmax—maximum lysis: 63.92 ± 5.38 %T
  Lvo—initial clot fibrinolysis velocity: 23.50 ± 13.77 %T/min
  Sc—area under the curve of a stable clot formation: 368.60 ± 84.14 %T x min
  Sf—area under the clot formation curve: 47.68 ± 7.07 %T x min
  Sl (area under the fibrinolysis curve): 143.17 ± 38.79 %T x min
  S—overall potential of clot formation and fibrinolysis (CLAUC): 559.45 ± 127.25 %T x min
  Tc—clot stabilization time: 355.50 ± 66.77 s
  Tf—plasma clotting time: 62.35 ± 6.00 s
  Tl—fibrinolysis time: 253.17 ± 62.51 s
  Tt—thrombin time: 18.15 ± 4.30 s
  T—total time of the process of clot formation and fibrinolysis: 689.17 ± 134.48 s
[3]; 0.3 mM
  Released t-PA: 1550.9 ± 135.2 pg/mL
[3]; 1.0 mM
  Released t-PA: 1267.1 ± 350.6 pg/mL

Reference: PMC9029893 (International Journal of Molecular Sciences, 2022)
